From patent US6465663B2, “O- or S-substituted tetrahydronaphthalene derivatives having retinoid and/or retinoid antagonist-like biological activity” (Allergan, Inc., priority 1996, dated 2002) come the findings set out here.

The term Kd denotes the equilibrium constant for the complex coming apart. High values mean weaker binding, low ones tighter binding.

SMILES strings stand for the structures.

The first experiment relates to ornithine decarboxylase (ODC). Briefly: ODC assay: inhibition of TPA induction of ornithine decarboxylase activity. It is filed as in vivo. The note with it: concentration of the test compound which causes 60% inhibition in the ODC assay. An excerpt:
A classic measure of retinoic acid activity involves measuring the effects of retinoic acid on ornithine decarboxylase. […] That reference discloses that ornithine decarboxylase (ODC) activity increased precedent to polyamine biosynthesis. It has been established elsewhere that increases in polyamine synthesis can be correlated or associated with cellular proliferation. Thus, if ODC activity could be inhibited, cell hyperproliferation could be modulated. Although all cases for ODC activity increases are unknown, it is known that 12-0-tetradecanoylphorbol-13-acetate (TPA) induces ODC activity. Retinoic acid inhibits this induction of ODC activity by TPA.
Regarding `CCOC(=O)c1ccc(NC(=O)c2ccc3c(c2)C(OC2CCCCO2)CCC3(C)C)cc1` (single isomer, unassigned) [Compound E72b, Ethyl 4-[5,6,7,8-tetrahydro-8(R or S)-(2′(S or R)tetrahydropyranoxy)5,5-dimethylnaphthalene-2-yl)carboxamido]benzoate], the IC60 is listed as 18 nmols.

With `CCOC(=O)c1ccc(OC(=O)c2ccc3c(c2)C(S(=O)(=O)c2ccccc2)=CCC3(C)C)cc1` [Compound E24, Ethyl 4-[{(5,5-dimethyl-8-(phenylsulfonyl)-5,6dihydronaphthalen-2-yl)carbonyl}oxy]benzoate], the IC60 came to 8.3 nmols.

Compound `CCON=C1CCC(C)(C)c2ccc(/C=C/c3ccc(C(=O)OCC)cc3)cc21` [Compound A5, Ethyl (E)-4-[2-(5,5-dimethyl-5,6,-dihydro-8(7H)-anti-(O-ethyl oxime)-naphthalen-2-yl)ethenyl]-benzoate] returned an IC60 of 10.3 nmols.

The compound `CCOC(=O)c1ccc(NC(=O)c2ccc3c(c2)C(=C(C)C)CCC3(C)C)cc1` [Compound E16] returned an IC60 of 88.4 nmols.

`CCOC(=O)c1ccc(OC(=O)c2ccc3c(c2)C(=C(C)C)CCC3(C)C)cc1` [Compound E15, Ethyl 4-[{(5,5-dimethyl-8(7H-(propyliden-2-yl)-5.6-dihydronaphthalen-2-yl)}carbonyl}oxy]benzoate] had an IC60 of 24.7 nmols.

The compound `CCOC(=O)/C=C(C)/C=C/C=C(\C)c1ccc2c(c1)C(OS(=O)(=O)C(F)(F)F)=CCC2(C)C` [Compound C14, Ethyl 7-[4,4-dimethyl-3,4,-dihydronaphthalen-1-trifluoromethylsulfonyloxy-7-yl]-3,7-dimethyl-hept-2(E), 4(E), 6(E)trienoate] showed an IC60 of 4 nmols.

`CCOC(=O)c1ccc(/N=N/c2ccc3c(c2)/C(=N/OC)CCC3(C)C)cc1` [Compound D3, Ethyl 4-[(8(7H)-anti-(O-methyl oxime)-5,5-dimethyl-5,6-dihydronaphthalen-2-yl)azo]benzoate] registered an IC60 of 8.4 nmols.

The compound `CCON=C1CCC(C)(C)c2ccc(/C(C)=C/C=C/C(C)=C/C(=O)OCC)cc21` [Compound C22b, Ethyl 7-[4,4-dimethyl-3,4-dihydro-1(2H)-anti-(O-ethyl oxime)-naphth-7-yl]3,7-dimethyl-hepta-2(E),4(E),6(E)-trienoate] showed an IC60 of 10 nmols.

`CCOC(=O)c1ccc(OC(=O)c2ccc3c(c2)C(OC2CCCCO2)CCC3(C)C)cc1` (single isomer, unassigned) [Compound E56a, Ethyl 4-[5,6,7,8-tetrahydro-8(R or S)-(2′(R or S)-tetrahydropyranoxy)-5,5-dimethyl-2-napthoyloxy]benzoate]: the IC60 worked out at 3.1 nmols.

`CCOC(=O)c1ccc(N=Nc2ccc3c(c2)C(OCOC)CCC3(C)C)cc1` (racemic) [Compound D6, (+/−) Ethyl 4-[(5,5-dimethyl-8-(methoxymethyloxy)-5,6,7,8-tetrahydronaphthalen-2-yl)azo]benzoate] showed an IC60 of 1.9 nmols.

`CCOC(=O)/C=C(C)/C=C/C=C(\C)c1ccc2c(c1)C(c1cccs1)=CCC2(C)C` [Compound C15, Ethyl 7-[4,4-dimethyl-3,4,-dihydronaphthalen-1-(2-thienyl)-7-yl]-3,7-dimethyl-hept-2(E), 4(E), 6(E)trienoate] had an IC60 of 14.5 nmols.

`CCOC(=O)c1ccc(/C=C/c2ccc3c(c2)C(=O)CCC3(C)C)cc1` [Compound A2, Ethyl (E)-4-[2-(5,6-dihydro-5,5-dimethyl-naphthalen-8(7H)-one-2-yl)ethenyl]-benzoate] gave an IC60 of 27 nmols.

Compound `CCOC(=O)c1ccc(NC(=O)c2ccc3c(c2)C(C(C)(C)C)=CCC3(C)C)cc1` [Compound E79, Ethyl 4-[(5 .5-dimethyl-5,6-dihydro-8-(1,1-dimethylethyl)-2-naphthalenyl)carboxamido]-benzoate] yielded an IC60 of 5.3 nmols.

Take `CCOC(=O)c1ccc(/C=C/c2ccc3c(c2)C(=C(CC)CC)CCC3(C)C)cc1` [Compound A27, Ethyl (E)-4-[2-(7,8-dihydro-5,5-dimethyl-8(7H)-(pentyliden-3-yl)-naphthalen-2-yl)ethenyl]-benzoate]: the IC60 is reported as 0.7 nmols.

On to `CCOC(=O)c1ccc(/C=C/c2ccc3c(c2)C(C2SCCCS2)CCC3(C)C)cc1` (stereo not drawn) [Compound A23, Ethyl (E)-4-[-2-(5,6,7,8-tetrahydro-5,5-dimethyl-8-(1,3-dithian-2-yl)naphthalen-2-yl)ethenyl] benzoate], for which the IC60 is on record as 43.7 nmols.

Still in this experiment, the particulars now being: concentration of the test compound which causes 80% inhibition in the ODC assay; cell marked (IC80).
Regarding `CCOC(=O)c1ccc(/C=C/c2ccc3c(c2)C(Sc2ccccc2)=CCC3(C)C)cc1` [Compound A16, Ethyl (E)-4-[2-(5,6-dihydro-5,5-dimethyl-8-(phenylthio)-naphthalenyl)ethenyl] benzoate], the IC80 is on record as 4.3 (IC80) nmols.

Another experiment addresses T1, RARβ (Homo sapiens, UniProt P10826).
T1 sequence (P10826 1-455): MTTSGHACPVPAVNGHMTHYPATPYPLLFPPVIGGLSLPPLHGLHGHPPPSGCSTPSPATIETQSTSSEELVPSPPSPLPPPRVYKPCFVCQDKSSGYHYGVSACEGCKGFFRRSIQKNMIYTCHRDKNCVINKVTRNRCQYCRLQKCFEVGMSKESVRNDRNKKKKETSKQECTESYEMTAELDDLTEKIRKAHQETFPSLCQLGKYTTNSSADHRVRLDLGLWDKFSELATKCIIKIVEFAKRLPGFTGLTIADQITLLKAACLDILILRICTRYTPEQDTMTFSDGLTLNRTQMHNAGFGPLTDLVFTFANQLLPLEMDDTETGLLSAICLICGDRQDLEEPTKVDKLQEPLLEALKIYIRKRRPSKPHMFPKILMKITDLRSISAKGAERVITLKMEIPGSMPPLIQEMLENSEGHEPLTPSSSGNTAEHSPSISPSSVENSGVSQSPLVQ
Briefly: Ligand binding assay.
Conditions: not given
An excerpt:
(§1) Other assays described below, measure the ability of the compounds of the present invention to bind to, and/or activate various retinoid receptor subtypes. When in these assays a compound binds to a given receptor subtype and activates the transcription of a reporter gene through that subtype, then the compound is considered an agonist of that receptor subtype. […] In the below described assays the ability of the compounds to bind to RARα, RARβ, RARγ, RXRα, RXRβ and RXRΓ receptors, and the ability or inability of the compounds to activate transcription of a reporter gene through these receptor subtypes can be tested.
(§2) A holoreceptor transactivation assay and a ligand binding assay which measure the antagonist/agonist like activity of the compounds of the invention, or their ability to bind to the several retinoid receptor subtypes, respectively, are described in published PCT Application No. WO WO93/11755 (particularly on pages 30-33 and 37-41) published on Jun. 24, 1993, the specification of which is also incorporated herein by reference. A description of the holoreceptor transactivation assay is also provided below.
(§3) CV1 cells (5,000 cells/well) were transfected with an RAR reporter plasmid MTV-TREp-LUC (50 ng) along with one of the RAR expression vectors (10 ng) in an automated 96-well format by the calcium phosphate procedure of Heyman et al. Cell 68, 397-406, (1992). For RXRα and RXRγ transactivation assays, an RXR-responsive reporter plasmid CRBPII-tk-LUC (50 ng) along with the appropriate RXR expression vectors (10 ng) was used substantially as described by Heyman et al. above, and Allegretto et al. J. Biol. Chem. 268, 26625-26633. For RXRβ transactivation assays, an RXR-responsive reporter plasmid CPRE-tk-LUC ([…]) along with RXRβ expression vector ([…]) was used as described in above. These reporters contain DRI elements from human CRBPII and certain DRI elements from promoter, respectively. (see Mangelsdorf et al. The Retinoids: Biology, Chemistry and Medicine, pp 319-349, Raven Press Ltd., New York and Heyman et al., cited above) (1, 8). A β-galactosidase (50 ng) expression vector was used as an internal control in the transfections to normalize for variations in transfection efficiency. The cells were transfected in triplicate for 6 hours, followed by incubation with retinoids for 36 hours, and the extracts were assayed for luciferase and β-galactosidase activities. The detailed experimental procedure for holoreceptor transactivations has been described in Heyman et al. above, and Allegretto et al. cited above. The results obtained in this assay are expressed in EC50 numbers, as they are also in the chimeric receptor transactivation assay. The Heyman et al. Cell 68, 397-406, Allegretto et al. J. Biol. Chem. 268, 26625-26633, and Mangelsdorf et al. The Retinoids: Biology, Chemistry and Medicine, pp 319-349, Raven Press Ltd., New York, are expressly incorporated herein by reference. The results of ligand binding assay are expressed in Kd numbers. (See Cheng et al. Biochemical Pharmacology Vol. 22 pp 3099-3108, expressly incorporated herein by reference.)
`CO/N=C1\CCC(C)(C)c2ccc(N=Nc3ccc(C(=O)O)cc3)cc21` [Compound D4, 4-[(8(7H)-Anti-(O-methyl oxime)-5,5-dimethyl-5,6-dihydronaphthalen-2-yl)azo]benzoic Acid] returned a Kd of 132 nM.

For the next experiment, the target named is T2, RARγ (Homo sapiens, UniProt P13631).
T2 sequence (P13631 1-454): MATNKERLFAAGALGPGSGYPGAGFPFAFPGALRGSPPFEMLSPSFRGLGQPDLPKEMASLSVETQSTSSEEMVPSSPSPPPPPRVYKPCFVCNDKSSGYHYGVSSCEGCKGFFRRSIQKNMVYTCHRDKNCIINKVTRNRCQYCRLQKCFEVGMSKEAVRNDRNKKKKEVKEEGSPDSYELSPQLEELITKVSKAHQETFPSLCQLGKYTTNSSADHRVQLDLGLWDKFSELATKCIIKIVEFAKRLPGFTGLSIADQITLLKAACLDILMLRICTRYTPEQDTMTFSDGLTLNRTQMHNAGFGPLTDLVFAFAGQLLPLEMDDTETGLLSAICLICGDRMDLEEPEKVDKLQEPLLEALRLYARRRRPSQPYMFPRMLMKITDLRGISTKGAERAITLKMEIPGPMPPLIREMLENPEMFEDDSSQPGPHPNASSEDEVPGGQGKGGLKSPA
Briefly: Ligand binding assay.
Conditions: not given
From the text: as §1, §2, §3
`CO/N=C1\CCC(C)(C)c2ccc(N=Nc3ccc(C(=O)O)cc3)cc21` [Compound D4, 4-[(8(7H)-Anti-(O-methyl oxime)-5,5-dimethyl-5,6-dihydronaphthalen-2-yl)azo]benzoic Acid] came in with a Kd of 363 nM.
